Key:
MDA-MB-231 cells = experiment: effect of E8 on MDA-MB-231 cells; type: cell-based
TNBC cells = experiment: effect of E8 on TNBC cells in mouse serum; type: cell-based
Text: (§1) The 10 most abundant aptamer sequences are highlighted. Panel B is a representative screening of the 10 most abundant aptamers from Panel A for significant caspase-3/7 activation in comparison to vehicle (V) and random oligonucleotide (R) in TNBC9 cells. Aptamer IDs labeled 1-10 (E1, E2, . . . . E10). […] STA, staurosporine; PAC, paclitaxel; Random, random oligonucleotide.
(See, e.g., Yamashita, M. et al. A novel method for evaluating antibody-dependent cell-mediated cytotoxicity by flow cytometry using cryopreserved human peripheral blood mononuclear cells. Sci. Rep. 6, 19772 (2016); Romano, E. et al. Ipilimumab-dependent cell-mediated cytotoxicity of regulatory T cells ex vivo by nonclassical monocytes in melanoma patients. Proc. Natl. Acad. Sci. U.S.A 112, 6140-6145 (2015); Kumar, R. et al. PD-1 blockade restores impaired function of ex vivo expanded CD8 T cells and enhances apoptosis in mismatch repair deficient EpCAMPD-L1 cancer cells. Onco. Targets. Ther. 10, 3453-3465 (2017), each of which is hereby incorporated by reference.).

[1] = system: MDA-MB-231-derived tumors; experiment: efficacy of E8 on tumor volume in tumor-bearing mice; type: in vivo, NOD/SCID mice
Text: White arrows point to tumor locations. […] Inset region is shown magnified on the right, white arrowhead points to tumor site. […] Asterisks denote a statistically difference with p<0.05 (n=8 mice/group). […] Panel F-G show histochemical analysis of caspase-3 activity in tumor-derived tissue sections (Panel F, vehicle-treated; Panel G, E8-treated). Panel H-I show TUNEL analysis of tumor-derived tissue sections (H, vehicle-treated; I, E8-treated).
To evaluate the efficacy of E8 on tumor volume, the PEGylated aptamer was injected once every 2 days during the course of an 11-day period, at a dose of 100 mg/kg (equivalent in molar terms to standard chemotherapy).

[2] = system: PBMCs from healthy donors; experiment: cytokine antibody array assay on PBMCs; type: cell-based, human; settings: varying concentrations of E8
Protocol: (§2) Varying concentrations of E8 aptamer candidate were incubated with red blood cells and, separately, with PBMCs from healthy donors to ensure E8 administration is applicable in a clinical setting. No effects of blood agglutination or red blood cell hemolysis were measured.

TNBC9 cells = experiment: induction of caspase-3/7 activation / target killing in TNBC9 cells; type: cell-based, human
Text: as §1
Functional enrichment of aptamers that mediate apoptosis of patient-derived xenograft (PDX)-derived triple negative breast cancer (TNBC) cells, termed TNBC9 (Example 8) was followed by selection of lead molecules. Based on sequencing analysis (FIG. 10, Panel A), the 10 most abundant sequences in the functionally enriched aptamer population were selected, synthesized, and folded.
The effectiveness of the selected candidate aptamers in target killing was measured on TNBC9 cells. Specifically, candidate aptamers were synthesized, folded, directly tested for induction of caspase-3/7 activation in TNBC9 cells.

red blood cells = experiment: incubation with red blood cells: agglutination and hemolysis; type: cell-based, human; settings: varying concentrations of E8
Protocol: as §2

MCF10A cells = experiment: selectivity of cell death induction, negative target cells; type: cell-based, human; settings: selectivity at the target cell level
[3] = system: tumor cells in EVOC samples from TNBC patients; experiment: human ex-vivo organ cultures (EVOC), graded pathological assessment; type: cell-based; settings: 0-4 scale, 2 blinded pathologists; 20-50 μM, two doses, 5 days; EVOC from 2 patients
Protocol: Graded pathological assessment was made on a scale of 0-4 by two blinded pathologists. White stars denote samples in which an effect reached a grade of at least 3. Rnd, random.
The efficacy of aptamer E8 (described in Example 10) was evaluated in human ex-vivo organ cultures (EVOC). EVOCs were freshly derived from two representative TNBC patients and were prepared by Curesponse. 250 μm wide tissue slices were plated onto a 24 well plate in culture medium at high oxygen conditions. Cancer cells of the primary tumor were kept viable for up to 14 days.
The E8 aptamer and other chemotherapies (palbociclib, everolimus, fulvestrant) were administered at concentrations of 20-50 μM to the EVOCs. Following day 1, sample medium was replaced and a second dose of the same concentration of therapies were administered. After 5 days, samples were fixed with 4% w/v paraformaldehyde and histological sections were prepared and stained with hematoxylin-eosin. Effects were graded by 2 blinded pathologists on a 0-4 scale.

[4] = PEGylated aptamer, 100 mg/kg once every 2 days
[5] = following injection of E8 compared to the PBS control

CGGACTCACGCAAGAGCGTTTGGCAGTGTAAAACTGTTTAACGTATCTGCTCGC (chemistry not given here) [Aptamer E8]
effect on MDA-MB-231 cells (MDA-MB-231 cells): remarkable effect | function in mouse serum (TNBC cells): retained function in mouse serum | TUNEL analysis (apoptotic DNA fragmentation) of tumor-derived tissue sections [1, 4]: increase in cell death | histochemical analysis of caspase-3 activity in tumor-derived tissue sections [1, 4]: significant staining | tumor volume change compared to vehicle-treated animals ([1]; PEGylated aptamer, 100 mg/kg once every 2 days over 11 days): decreased significantly | final tumor volume on day 11 ([1]; PEGylated aptamer, 100 mg/kg once every 2 days over 11 days, vehicle 301±51): 168±39 mm^3 | macroscopic appearance of extracted tumors ([1]; PEGylated aptamer, 100 mg/kg once every 2 days, tumors excised day 11): macroscopic signs of tissue death | body weight [1, 5]: No significant changes | physical appearance [1, 5]: No significant changes | cytokine release [2]: Only minor release of certain cytokines | induction of apoptosis (caspase-3/7 activation) (TNBC9 cells; compared to vehicle alone or random oligonucleotides): most effective of the selected aptamers at inducing apoptosis | level of direct target killing (TNBC9 cells; in-vitro and ex-vivo, independent biological replicate experiments): 20-40% | cell killing, target cells (TNBC9 cells; selectivity at the target cell level): killing TNBC9 | blood agglutination (red blood cells): No effects | red blood cell hemolysis (red blood cells): No effects | cell killing, negative target cells (MCF10A cells): but not MCF10A cells | pathological grade of effect on tumor cells [3]: 3-4
